Results from patent US12133843B2, “IL-8 inhibitors for use in the treatment and/or prevention of bacterial secondary infections” (priority 2017, dated 2024).

What was measured:
[1] = test system: H1N1 influenza virus plus cigarette smoke; experiment: Lung inflammation exacerbation model combining H1N1 influenza infection and cigarette smoke exposure (Cs-H1N1); assay type: in vivo, female C57BL/6 mice; conditions: survival assay, once a day for 7 days from day of infection
Description: Viral infections are among the principal causes of COPD exacerbations (Mackay, A. J. & Hurst, J. R. Immunol Allergy Clin North Am 33, 95-115; 2013). For that reason, the inventors combined influenza infection and cigarette smoke exposure (Cs) in mice in order to model COPD exacerbation. The inventors essentially exposed female C57BL/6 mice to Cs for 12 days and infect them with 1000 pfu of H1N1 influenza virus at day 7 after starting daily Cs exposure (Cs-H1N1).

[2] = test system: Streptococcus pneumoniae (ATCC 6303 serotype 3); experiment: Single pneumococcal infection (pneumonia) in mice; assay type: in vivo, C57BL/6J mice; conditions: S. pneumoniae i.n.
[3] = test system: neutrophil influx; conditions: this dose and schedule (10 mg/kg oral gavage); cited from earlier work
[4] = test system: Influenza A/WSN/33 H1N1 (IAV); experiment: Single IAV infection in mice, treatment with CXCR1/CXCR2 antagonist; assay type: in vivo, C57BL/6J mice; conditions: 10^4 PFU IAV
[5] = test system: S. pneumoniae secondary infection after IAV; assay type: in vivo, C57BL/6J mice
[6] = in vivo; cited from earlier work
[7] = 10 mg/kg at 6, 12, 24, 36 h, 48 h after infection, BALF
[8] = 10 mg/kg twice a day for 5 days, day 5, BAL
[9] = 10 mg/kg twice a day for 5 days, day 5, BAL fluid ELISA

C[N+]1(C)[C@@H]2C[C@@H](OC(=O)C(O)(c3cccs3)c3cccs3)C[C@H]1[C@@H]1O[C@@H]12 [Tiotropium, reference compound]
Mice mortality, delay (survival curve vs Cs-H1N1 group) [1]: no significant differences

C[C@@H](C(N)=O)c1ccc(OS(=O)(=O)C(F)(F)F)cc1 [DF2162, R(−)-2-[(4′-trifluoromethanesulfonyloxy)phenyl]propionamide]
Lung injury (overall pathological score) ([2]; 10 mg/kg at 6, 12, 24, 36 h, 48 h, score max 18 points): reduced the lung injury
Neutrophils in the lungs ([2]; 10 mg/kg at 6, 12, 24, 36 h, 48 h after infection): reduction in neutrophils
Neutrophils recruited into the airways [2, 7]: decreased
Number of leukocytes recruited into the airways [2, 7]: decreased number of leukocytes
Lethality ([2]; 10 mg/kg twice a day for 2 days, followed 10 days): protected mice from lethality
Neutrophil influx in other models [3]: significant inhibition of neutrophil influx
Weight loss (morbidity) ([4]; 10 mg/kg oral gavage twice a day, day 0 to 5, vs vehicle): reduction of weight loss
Histological analysis of lungs: bronchiolar and vascular inflammation ([4]; 10 mg/kg twice a day for 5 days, H&E slides): reduced bronchiolar and vascular inflammation
Levels of MPO in the lungs ([4]; 10 mg/kg twice a day for 5 days, day 5): did not reduce
Neutrophils in the airways [4, 8]: decreased
Number of leukocytes recruited into the airways [4, 8]: decreased
Levels of CXCL1 in the airways [4, 9]: decreased
Levels of IL-6 in the airways [4, 9]: did not reduce
Levels of TNF-α in the airways [4, 9]: decreased
Viral loads in the lungs ([4]; 10 mg/kg twice a day for 5 days, day 5, plaque assay, vs vehicle): reduced
Lung injury (histopathological score) ([4]; 10 mg/kg twice a day for 5 days, day 5, score max 18 points): reduced the lung injury
Levels of IL-10 in BAL fluid ([5]; mouse, in vivo): decreased
Mortality after secondary infection ([5]; mouse, in vivo, 10 mg/kg): delayed mortality
Weight loss ([5]; mouse, in vivo, 10 mg/kg): reduced the weight loss
Histopathological lung damage (overall score of lung injury) ([5]; treated days 3-6 of IAV, […]): decreased such histopathological lung damage
Levels of CXCL-1 in BAL fluid ([5]; treated days 3-6 of IAV, […]): prevented the increase
Levels of IL-6 in BAL fluid ([5]; treated days 3-6 of IAV, […]): prevented the increase
Levels of IL-12 in BAL fluid ([5]; treated days 3-6 of IAV, […]): prevented the increase
Levels of TNF-α in BAL fluid ([5]; treated days 3-6 of IAV, […]): prevented the increase
Number of bacteria in the blood ([5]; treated days 3-6 of IAV, […]): reduction in number of bacteria
Recruitment of neutrophils into the lungs (MPO assay) ([5]; treated days 3-6 of IAV, […]): decreased recruitment of neutrophils
Recruitment of neutrophils into the airways ([5]; treated days 3-6 of IAV, […], BAL): decreased recruitment of neutrophils
Levels of protein in BALF (protein leakage) ([5]; treated days 3-6 of IAV, […], Bradford assay): decreased the levels of protein in BALF
Half-life [6]: long half-life

C[C@@H](C(=O)NS(C)(=O)=O)c1ccc(OS(=O)(=O)C(F)(F)F)cc1 [DF2156A]
Mortality rate ([1]; Cs-H1N1 mice, LD50 of influenza virus): slightly reduced
Mice mortality, delay (survival curve vs Cs-H1N1 group) [1]: significantly delayed
